Source: PubChem BioAssay AID1996
≈ marks a conversion by molar mass, not a printed value.

settings: buffer; pH 7.4; 200.0 µM

SMILES	solubility kinetic [µg/mL]
CCCCNC(=S)Nc1ccccc1Cc1ccccc1	32.5 (≈ 109 µM)
O=C(NCC(O)COc1ccc([N+](=O)[O-])cc1)c1ccccc1 (configuration not stated)	24.8 (≈ 78.4 µM)
Cc1ccc(S(=O)(=O)Nc2cc(C)on2)cc1	28.1 (≈ 111 µM)
O=C(NC1CCSc2ccccc21)c1cccc(Cl)c1 (configuration not stated)	2.1 (≈ 6.91 µM)
CC(C)(C)c1ccc(C(=O)NCCOc2ccccc2)cc1	2.2 (≈ 7.4 µM)
O=C1N(c2ccccc2)c2ccccc2C1(O)C(F)(F)F (configuration not stated)	> 44
CCCOc1ccc(C(=O)Nc2ccc(CN3CCOCC3)cc2)cc1	4.1 (≈ 11.6 µM)
COc1cc(Cl)c(C)cc1NC(=O)Cc1cccs1	1 (≈ 3.38 µM)
O=C(NC1CCN(C(=O)Nc2cccc(F)c2)CC1)c1ccco1	> 49.7
Cc1c(NS(=O)(=O)c2cccc(C(=O)N3CCC(C)CC3)c2)c(=O)n(-c2ccccc2)n1C	> 70.3
O=C(COC(=O)CCSc1ccccc1)Nc1ccccc1Br	18.2 (≈ 46.2 µM)
Cc1ccc(CNC(=O)Cn2cccc2)cc1	> 34.2
CC1(C)CN2C(=O)c3ccccc3C2(C)S1 (configuration not stated)	> 35
Cc1csc(NC(=O)CCCc2cccs2)n1	28.2 (≈ 106 µM)
CN(C)CCOC1c2ccccc2CSc2ccccc21.O=CO (configuration not stated)	46.7
N#Cc1ccc(NC(=O)CCNC(=O)c2ccco2)cc1Cl	5 (≈ 15.7 µM)
O=C(CSc1ncc(-c2ccccc2)[nH]1)Nc1ccccc1F	> 49.1
CCC1(c2ccc(F)cc2)NC(=O)N(CC(=O)NC2CCCCCC2)C1=O (configuration not stated)	10.4 (≈ 27.7 µM)
CN1CCCN(C(=O)COc2ccccc2)CC1	> 37.2
O=C1CN(C(=O)COC(=O)CCc2ccccc2)c2ccccc2N1	> 50.8
NS(=O)(=O)c1ccc(CCNC(=O)c2ccc3c(=O)n4c(nc3c2)CCCCC4)cc1	8.2 (≈ 18.6 µM)
CN(C)c1ccc(C=NCCc2ccc(S(N)(=O)=O)cc2)cc1	37.1 (≈ 112 µM)

SMILES	solubility kinetic [µg/mL]
COc1ccc(N(C)S(=O)(=O)c2c(C)noc2C)c(OC)c1	> 49
Cc1ccc(NC(=O)C[n+]2cc(-c3ccccc3)n3c2CCC3)c(C)c1.[Cl-]	55.4
Cc1cccc2cc(CNC3CCCC3)c(Cl)nc12	> 41.2
CC(C)C(NC(=O)CCN1C(=O)c2ccccc2C1=O)c1ccccc1 (configuration not stated)	18.3 (≈ 52.2 µM)
O=C(COC(=O)/C=C/c1ccc(Cl)cc1Cl)NCc1ccco1	5.9 (≈ 16.7 µM)
CCC(C)c1ccc(C(CC)NC(=O)C2CCCO2)cc1 (configuration not stated)	34.5 (≈ 119 µM)
CC(=O)Nc1ccc2nc(NC(=O)c3ccco3)sc2c1	4.9 (≈ 16.3 µM)
COc1ccc(C(=O)Nc2cc([N+](=O)[O-])ccc2N2CCCC2)cc1	2.6 (≈ 7.62 µM)
CN(C)CCCNC(=O)c1cc(C(=O)c2ccccc2)c[nH]1	> 44.9
COc1ccc(Nc2ncnc3sc(C)cc23)c(OC)c1.Cl	> 50.7
CN1CCN(c2ccc(NC(=O)CN3CCOCC3)cc2F)CC1	> 50.5
O=C(NCCN1CCOCC1)c1ccc(Cl)cc1O	> 42.7
Cc1onc(-c2c(F)cccc2Cl)c1C(=O)N1CCSCC1	> 51.1
CC1=C(C)/C(=N\OS(=O)(=O)c2ccc(C)cc2)C=CC1=O	3.5 (≈ 11.5 µM)
COc1ccc(NC(=O)NC2CCCCCCC2)c(OC)c1	5.5 (≈ 18 µM)
O=S(=O)(c1ccccc1C(F)(F)F)N1CCN(c2ncnc3sccc23)CC1	4.6 (≈ 10.7 µM)
CC(=O)Nc1nc(-c2ccc3ccccc3c2)cs1	< 0.3
Cc1ccc(N(CC(=O)NC(C)(C)C)C(=O)CCC(=O)Nc2nccs2)cc1C	12.2 (≈ 29.3 µM)
CCN1CCOC(CC(=O)Nc2ccc([N+](=O)[O-])cc2)C1=O (configuration not stated)	40.2 (≈ 131 µM)
CC(C)(C)c1ccc(SCCc2ccccn2)cc1	1.1 (≈ 4.05 µM)
NC(=O)C1CC12c1ccccc1-c1ccccc12 (configuration not stated)	22 (≈ 93.5 µM)
CN(C)CCCNc1nc(N)c([N+](=O)[O-])c(NCc2ccccc2)n1	44.3 (≈ 128 µM)

SMILES	solubility kinetic [µg/mL]
CCOC(=O)CSc1nc(C)cc2c1C(=O)OC2	37.5 (≈ 140 µM)
Cc1ccc(C2=CSC3=NS(=O)(=O)CCN23)cc1	> 42.1
CC(NC(=O)c1cc(Br)cs1)C1CCCO1 (configuration not stated)	> 45.6
COc1ccc(CNc2ncnc3c2[nH]c2cc(OC)c(OC)cc23)cc1	1.2 (≈ 3.29 µM)
Cc1cc(C)c(C#N)c(SCc2ccc([N+](=O)[O-])cc2)n1	< 0.2
CC(C)(C)C1CCc2onc(C(=O)O)c2C1 (configuration not stated)	> 33.5
CC(=O)NC(c1ccccc1)c1cc(Cl)c2cccnc2c1O (configuration not stated)	0.4 (≈ 1.22 µM)
O=C(NC1CCCCC1)c1ccc(-c2ccc(Cl)cc2)o1	< 0.7
CCOC(=O)c1ccc(S(=O)(=O)Nc2cc(S(=O)(=O)Nc3ccc(OC)cc3)ccc2O)cc1	72.8 (≈ 144 µM)
Clc1ccc2ccc3cccnc3c2n1	> 32.2
COc1cc(C(NC(C)=O)NC(C)=O)ccc1OCc1ccccc1	> 51.4
O=C(O)/C=C/C(=O)c1c(-c2ccccc2)[nH]c2ccccc12	> 43.7
COCc1cc(OC(=O)N(C)C)nc(-c2ccc(C)c(Cl)c2)n1	0.7 (≈ 2.08 µM)
COc1cc(C(=O)NC2CCCCCCC2)cc(OC)c1OC	< 0.7
NS(=O)(=O)c1ccc(CCNCC(=O)NC2CC2)cc1	26.3 (≈ 88.4 µM)
Cc1cc(-n2c(C)cc(C(=O)CN3C(=O)C(=O)N(C)C3=O)c2C)no1	> 51.6
CC(C)NS(=O)(=O)c1ccc(OCC(=O)NC(C)c2ccccc2)cc1 (configuration not stated)	53.1 (≈ 141 µM)
NC(=O)COC(=O)/C=C/c1ccccc1[N+](=O)[O-]	33.1 (≈ 132 µM)
COCCNC(=O)c1ccc2c(c1)ncn2-c1cccc(C)c1	> 46.4
Cc1nc(C)c(C(=O)OCC(=O)NCc2ccccc2Cl)s1	26.4 (≈ 77.9 µM)

Other lines, results leading:

solubility kinetic [µg/mL]	SMILES
2.7 (≈ 8.77 µM)	COCc1cc(=O)[nH]c(/N=C(\N)Nc2cccc(Cl)c2)n1
> 51.7	O=C1OC(N2C(=O)CC[C@H]2C(=O)NCC2CCCO2)c2ccccc21 (some centres not stated)
45.1 (≈ 140 µM)	COc1ccc(Cl)cc1C(=O)NCC(c1ccco1)N(C)C (configuration not stated)
5.1 (≈ 16.2 µM)	CC(C)c1ccc(NC(=O)CCC(=O)NCc2ccco2)cc1
> 39.8	O=C(O)c1cn2c3c(ccc(Cl)c3c1=O)OCC2
> 42.9	[Cl-].c1ccc(Cn2c[n+](Cc3ccccc3)cn2)cc1
40.3 (≈ 149 µM)	O=C(NCc1ccco1)c1cc(Cl)nc(Cl)c1
> 50.3	Cc1cc2occ(CC(=O)NC3(C)CCS(=O)(=O)C3)c2cc1C (configuration not stated)
> 44.1	Cc1cc(NC(=O)CN2C(=O)NC(CC(C)C)C2=O)no1 (configuration not stated)
7.6 (≈ 25.5 µM)	Cc1ccc(NC(=S)N(Cc2ccccc2)C(C)C)cc1
29.9 (≈ 106 µM)	CCc1ccc(CN2CCN(c3ncccn3)CC2)cc1
4.3 (≈ 13.7 µM)	N#C/C(=C/c1ccc(O)cc1)C(=O)NCc1ccc(Cl)cc1
34.3 (≈ 113 µM)	Cc1ccc(N2CC(C(=O)N3CCOCC3)CC2=O)cc1C (configuration not stated)
> 48.5	O=C(O)c1ccc(/C=N/n2cc(-c3ccccc3)[nH]c2=S)cc1
30.5 (≈ 90.4 µM)	COc1ccc(CCC(C)NCc2ccc(C(F)(F)F)cc2)cc1 (configuration not stated)
> 34.1	O/N=C(\c1ccccc1)C(O)c1ccccc1 (configuration not stated)
> 40.2	CC(=O)Nc1ccc(S(=O)(=O)N2CCCC2)cc1
10.7 (≈ 29.9 µM)	CC(OC(=O)c1ccc(Br)o1)C(=O)NCC1CCCCC1 (configuration not stated)
< 0.4	COc1ccc2nc(SCC(=O)NC3CCCC3)c(C)cc2c1
> 34.5	CC(=O)Nc1cc2c3c(c1)CCN3C(=O)CC2
> 49.1	CC(=O)C1=C(O)C(=O)N(c2ccc(O)cc2)C1c1ccccc1F (configuration not stated)
10.5 (≈ 30.4 µM)	COc1cccc(CNC(=O)c2ccc(C3SCCS3)cc2)c1
19.7 (≈ 74 µM)	COc1ccccc1C(=O)c1nc2ccccc2n1C
> 51.1	Cc1ccc(C)c(NC(=O)CSc2nnc(-c3ccncc3)o2)c1
> 43.9	CN(C)CCNC(=O)COc1cccc2c1OC(C)(C)C2
30.1 (≈ 120 µM)	O=C(O)c1cc(O)ccc1NC(=O)C1CCCO1 (configuration not stated)
51.5 (≈ 146 µM)	Cc1ccc(/C(O)=C2\C(=O)C(=O)N(C)C2c2cccc([N+](=O)[O-])c2)cc1 (configuration not stated)

solubility kinetic [µg/mL]	SMILES
> 52.2	CC12CN3CCN(CC(C3)/C1=N\NC(=O)Nc1cccc(Cl)c1)C2
2.6 (≈ 10.5 µM)	Nc1nc(-c2ccccc2)cc(-c2ccccc2)n1
> 44.3	CCN(C(=O)CSc1nccc(=O)[nH]1)C1CCCCC1
22.3 (≈ 58.1 µM)	C=CCSc1nc2sc3c(c2c(=O)n1-c1ccc(C)cc1)CCN(C)C3
32.9 (≈ 95.5 µM)	CCN1C(=O)Cc2cc(S(=O)(=O)NCCc3ccccc3)ccc21
8.6 (≈ 24.1 µM)	O=C(/C=C/c1ccccc1)OCCN=C1NS(=O)(=O)c2ccccc21
> 34.9	O=C(Nc1ccncc1)c1ccccc1Cl
> 55.4	CN1C(=O)c2ccc(NC(=O)c3c(C(=O)O)cccc3[N+](=O)[O-])cc2C1=O
6.7 (≈ 13.4 µM)	Cc1ccc(NC(=O)COc2ccc(N(C)C(=O)C(C)(C)C)cc2)cc1S(=O)(=O)N1CCCCC1
> 54.2	CC(=O)N1CCN(C(=O)COC(=O)/C=C/c2ccccc2[N+](=O)[O-])CC1
8.5 (≈ 23.9 µM)	Cc1ccccc1NC(=O)NC1(C(=O)NCc2ccco2)CCCCC1
> 49.9	Cc1ccc(S(=O)(=O)NC(=O)NC(C)Cc2ccccc2)cc1 (configuration not stated)
> 40.8	Cc1ccccc1C(=O)NCCNC(=O)c1ccco1
> 33.2	OC[C@@H](O)C1OC2NC(=S)OC2C1O (some centres not stated)
2.1 (≈ 6.35 µM)	COC(=O)CN1C(=O)Nc2ccc(Cl)cc2C1c1ccccc1 (configuration not stated)
4.1 (≈ 12.4 µM)	Cc1ccc(NC(=O)CCCNC(=O)c2ccc(Cl)cc2)nc1
> 44.1	Nc1nc(SCC(=O)Nc2cccc([N+](=O)[O-])c2)n[nH]1
< 0.2	O=[N+]([O-])c1ccc(Sc2cccc3cccnc23)c2cccnc12
0.3 (≈ 0.962 µM)	CCC(=O)NC(=S)Nc1cccc(Cl)c1N1CCCC1
< 0.3	Cc1ccc(C(=O)NC(=S)NCc2ccccc2)cc1
2.4 (≈ 8.24 µM)	CCc1ccc(C2C(C#N)=C(N)Oc3cc(N)ccc32)cc1 (configuration not stated)
> 44.8	CN1CCN(S(=O)(=O)c2cccc3nsnc23)CC1
> 54.8	COc1cc(C(=O)COC(=O)c2ccc([N+](=O)[O-])o2)cc(OC)c1OC
15.7 (≈ 67.6 µM)	Cc1ccc(-c2csc(N=C(N)N)n2)cc1
2.9 (≈ 10.2 µM)	COc1ccccc1-n1c(-c2ccc(F)cc2)coc1=O
19.5 (≈ 53.2 µM)	CSc1ncc(CN2CCc3c([nH]c4ccccc34)C2C(C)(C)C)cn1 (configuration not stated)
